Measurements published in patent publication US5470877A, “Uses of perillic acid methyl ester” (Wisconsin Alumni Research Foundation, priority 1994, dated 1995).
Where “and” joins values, the source holds several entries; their conditions need not be identical. Equal values may be shown once. Each block holds one molecule with its values, some of them ahead of it.

Legend:
21-26 kDa proteins [1] = assay: Protein isoprenylation inhibition in NIH3T3 cells (SDS-PAGE fluorography); type: cell-based, mouse; details: for isoprenylation of the 21-26-kDa bands, % of the control: NIH3T3, gel slicing and scintillation counting
Protocol: "Isoprenylation" is the addition of a multiple of the 5 carbon isoprene unit to a protein. Our experiments in isoprenylation are reported at Crowell, et al. 1991, J. Biol. Chem. 266:17679-17685. To test whether a specific monoterpene affects isoprenylation of proteins in cells, […] were incubated with a radioactive isoprene precursor and 0-5 mM of the test monoterpene and then subjected to SDS-PAGE. Because they carried a radioactive label, isoprenylated proteins were visualized by fluorography. As a control, cells were incubated without the monoterpene.
Cells were harvested after trypsin treatment, washed twice with phosphate-buffered saline, suspended in electrophoresis sample buffer (Laemmli, U.K., 1970, Nature 227:680-685), and either analyzed immediately or stored at -20° C. Whole cell extracts were analyzed by SDS-PAGE on 16-cm×18-cm×0.75-mm gels by the method of Laemmli (supra). The acrylamide concentrations were 5% for the stacking gel and 12% for the separating gel. Gels were stained with Coomassie Brilliant Blue, equilibrated for 20 min in Amplify (Amersham Corp.) fluorographic reagent, dried under vacuum at 65° C., and exposed to preflashed Kodak X-Omat AR film as described by Laskey and Mills (1975, Eur. J. Biochem, 56:335-341). Some fluorograms were analyzed further by densitometry. Where indicated, gels were sliced, dissolved at 50° C. for 3 hours in 0.5 ml of water+0.5 ml of Solvable (Amersham), and then analyzed by scintillation spectrometry in 10 ml of Atom light (Amersham) mixture. Protein content was measured by the method of Lowry, et al. (1951, J. Biol. Chem. 193:265-275).
FIG. 1 depicts the structures of certain monoterpenes.
The degree of isoprenylation was evaluated by the amount of labeled protein present in the 21-26 kDa range, as evidenced by fluorography.

[2] = Chemistry panel and toxicity monitoring in human subjects; details: 100 mg/kg d-limonene
Protocol: The custard consisted of dry unflavored custard mix, cold water, cold whole milk, and orange oil. The components were blended at room temperature and then refrigerated for at least 30 minutes prior to ingestion by the subjects. Subjects ingested the orange oil-containing mixture over 2-10 minutes. […] One subject had additional blood draws for metabolite analysis at 1, 2, and 8 h post-ingestion. The chemistry panel consisted of: BUN, creatinine, calcium, magnesium, phosphorous, uric acid, total cholesterol, total protein, albumin, total bilirubin, y-glutamyl transpeptidase, alkaline phosphatase, aspartate aminotransferase, and lactate dehydrogenase. Subjects were monitored for toxicity for one week.

[3] = in vivo; cited from earlier work
[4] = Plasma metabolite identification and quantitation in rats; type: in vivo, Wistar-Furth rat; details: rat, in vivo
Protocol: Control animals received oil alone. At the chosen time points, rats were anesthetized with ether and blood was collected into heparinized tubes (Heparin (Sigma, Grade II), at 20 mg/ml in 0.9% saline). Plasma was removed following centrifugation and stored at -20° C.
For quantitation of chronic plasma metabolite levels of perillyl alcohol, female WF rats were housed individually and fed fresh diet daily. The afternoon before blood collection, all rats were given approximately 20 grams of the appropriate diet and allowed to eat ad. libitum for 18 hours. Food consumption data was determined the next morning and the rats were bled within 2 hours following food removal.
Briefly, 5 μl of a 10 mM solution of perillaldehyde was added to 50 μl plasma as an internal standard for quantitation. The plasma was mixed with an equal volume of n-butanol:acetonitrile (1:1, v/v), after which another volume of saturated potassium phosphate was added. After vortexing, the samples were centrifuged and the organic layer removed from the top.
Plasma extracts were analyzed using a Hewlett-Packard 5891 gas chromatograph equipped with a flame-ionization detector or a Hewlett-Packard 5890 chromatograph equipped with a 5971A mass-selective detector, both with 30 m Supelco SPB-5 columns. The temperature program was 90° C. for 4 minutes, increasing by 10° C./minute, followed by 15 minutes at 275° C. The split ratio was 1:10 and the linear velocity was 1.1 ml/minute. Standard curves were generated by adding 5 μl rat plasma. Standards were then extracted and analyzed by capillary gas chromatography. The ratio of the terpene peak area/perillaldehyde peak area versus the concentration of terpene in the sample was plotted.

[5] = in vivo
Protocol: Subjects: The subjects were five females and two males, median age of 32 years (range 23-55) and without illness or laboratory abnormalities.
The custard consisted of dry unflavored custard mix, cold water, cold whole milk, and orange oil. The components were blended at room temperature and then refrigerated for at least 30 minutes prior to ingestion by the subjects. Subjects ingested the orange oil-containing mixture over 2-10 minutes. […] The chemistry panel consisted of: BUN, creatinine, calcium, magnesium, phosphorous, uric acid, total cholesterol, total protein, albumin, total bilirubin, y-glutamyl transpeptidase, alkaline phosphatase, aspartate aminotransferase, and lactate dehydrogenase. Subjects were monitored for toxicity for one week.

[6] = rat, in vivo; cited from earlier work
21-26 kDa proteins [7] = assay: Protein isoprenylation inhibition in M600B human mammary epithelial cells
Protocol: To test whether a specific monoterpene affects isoprenylation of proteins in cells, cell extracts were incubated with a radioactive isoprene precursor and 0-5 mM of the test monoterpene and then subjected to SDS-PAGE. Because they carried a radioactive label, isoprenylated proteins were visualized by fluorography. As a control, cells were incubated without the monoterpene.
For both isoprenylation and cell growth assays, the monoterpenes were mixed with prewarmed (37° C.) medium containing 10% calf serum, and then the monoterpene-containing medium was added to cells. The relative effects of various monoterpenes on protein isoprenylation were compared by comparison of the relative intensity of bands on fluorograms from [^14 C]-mevalonate-labelled cells treated with each monoterpene.
Samples from each cell line were then analyzed on the same gel.

[8] = system: DMBA-induced rat mammary carcinomas; assay: Regression of DMBA-induced mammary carcinomas, pair-feeding study; type: in vivo, Wistar-Furth rat
Protocol: We used Wistar-Furth female rats for in vivo studies. Wistar-Furth female rats were obtained from Harlan Sprague-Dawley, Inc., (Madison, Wis.). All rats, arriving at 43-48 days of age, were housed at four rats per cage in wire-bottom metal cages and all were maintained with a light/dark cycle of 12 hours. Rats were provided Teklad Lab blox chow and acidified water ad libitum.
After one week of acclimation, the carcinogen DMBA was administered to the rats, which were 50-55 days old at this point. The DMBA was dissolved in a stock solution of 20 mg DMBA/ml sesame oil, heated and allowed to cool to room temperature before administration. DMBA (Eastman Kodak, Rochester, N.Y.) was given as a single gastric intubation of 50 mg DMBA/kg rat body weight.
In the pair-feeding study, a group of 70 mammals was treated with DMBA. Beginning four weeks post carcinogen administration, mammals were weighed and palpated weekly. Upon palpation of the first mammary carcinoma (diameter≥3 mm), mammals were randomly assigned to control or 2.5% (w/w) perillyl alcohol diet and pair-fed.
Perillyl alcohol (>96% pure by GC analysis, Aldrich, Milwaukee, Wis.) and Teklad 4% mouse/rat diet meal were thoroughly mixed and stored at -20° C. Fresh diets were made every 7-10 days. All mammals were provided fresh diet daily to minimize evaporation of the monoterpenes. For pair-feeding, the quantity of diet consumed by the monoterpene-fed mammals was measured every 24 hours and the assigned partner was pair-fed accordingly.
In the pair-feeding study, all palpable mammary carcinomas were classified as either "primary" tumors (i.e, the first tumor(s) palpated with a minimum diameter of 3 mm) or "secondary" tumors (i.e. a palpable tumor arising after initial diet assignment). At diet assignment, some mammals had more than one primary tumor. All carcinogen-exposed mammals not bearing a first palpable tumor by week 15 post-carcinogen were removed from the experiment. Complete regression of a tumor was defined as non-palpability for a minimum of three consecutive weeks. All mammals in the pair-feeding study were followed for a minimum of 10 weeks post-diet assignment for tumor growth or regression at primary tumor sites and all other mammary glands. The rats were necropsied if moribund. Complete necropsies were performed on all rats at the termination of the study. Greater than 95% of tumors remaining at the autopsy date were diagnosed as mammary carcinomas based on gross and histopathological criteria.

HT29 cells = assay: Inhibition of HT29 colon adenocarcinoma cell growth/proliferation; type: cell-based, human; details: for Rank order, inhibition of HT-29 tumor cell proliferation: 1 = greatest inhibition, 5 = least inhibition
Protocol: (§1) We examined the effect of several of the terpenes on certain types of cell growth. […] Additionally, growth of HT29 (human colon adenocarcinoma) cells was inhibited by 80% by 1 mM perillyl alcohol.

NIH3T3 cells = assay: NIH3T3 cell growth inhibition (FIG. 3); type: cell-based, mouse; details: NIH3T3 (murine) cells
Protocol: (§2) NIH3T3 (mouse embryo) cells were obtained from the American Type Culture Collection and were grown in Dulbecco's modified Eagle's medium supplemented with 10% calf serum. M600B immortalized human mammary epithelial cells (Stampfer, M.R., 1985, J. Tissue Culture Methods 9:107-115) were, obtained from Dr. Martha Stampfer and were grown in supplemented HCDB 170 medium (Hammond, et al. (1984) Proc. Natl. Acad. Sci U.S.A. 81:5435-5439), as described previously (Stampfer, et al. (1985) Proc. Natl. Acad. Sci U.S.A. 82:2394-2398; Eldridge, et al. (1989) Cancer Res. 49:4326-4331).
(§3) All cells were maintained in 100-mm dishes at 37° C. in a humidified 5% CO2 atmosphere. Viable cells were distinguished from nonviable cells by counting azure II/methylene blue-stained colonies 10 days after the cells were plated at a density of 100 cells per dish. Trypan blue exclusion was measured by incubating cells for 1 min with one drop of trypan blue per 10 ml of cells. Viable (colorless) and nonviable (blue) cells were then counted on a hemocytometer.
as §1

M600B cells = assay: M600B cell growth inhibition (FIG. 4); type: cell-based; details: M600B (human) cells
Protocol: as §2, §3, §1

rat mammary carcinoma = assay: Comparison of dietary perillyl alcohol and perillic acid methyl ester as inducers of rat mammary carcinoma regression; type: in vivo, Wistar-Furth rat; details: 0.5% PAME diet
Protocol: (§4) Inbred female Wistar-Furth rats were given 50 mg/kg DMBA at 50-55 days of age. Upon development of a mammary tumor with the largest diameter≥10 mm, the rat was assigned to 0.5% perillic acid methyl ester diet and fed ad libitum. The 0.5% perillic acid methyl ester diet (weight compound/weight ground Teklad rat/mouse 4% meal/chow) was prepared fresh every 7-10 days. Fresh diet was given to rats daily. All rats were weighed and palpated weekly. The study was terminated at 6 weeks after initial diet administration. The following tumor regression data was acquired:
We compared the effects of PAME and POH in terms of their ability to regress rat mammary carcinomas. Table 8 records our comparison. In summary, a 0.5% PAME diet was effective, while a 0.5% POH diet was only 10% effective. Diets of 2% POH were roughly 64-70% effective. While 2% POH is tolerated by a mammal, on a practical level PAME is preferred because a lower dose is sufficient.

DMBA rat mammary tumor = assay: Dietary perillic acid methyl ester-induced rat mammary tumor regression; type: in vivo, Wistar-Furth rat; details: 0.5% perillic acid methyl ester diet, individual rat tumors
Protocol: as §4, with “administration.” for “administration. The following tumor regression data was acquired:”

[9] = 10% limonene diet or 2.5% POH diet
[10] = 6 weeks, second comparison, listed as PAME

SMILES: C=C(C)[C@H]1CC=C(C)CC1 [limonene]
isoprenylation of the 21-26-kDa bands, % of the control (21-26 kDa proteins [1]; 0.5 mM limonene): ~ 50 % of the control
intensity of the 66-, 46-, and 17-kDa bands (21-26 kDa proteins [1]; 0.5 mM or 5 mM limonene): not different from that of the control
isoprenylation of the 21-26-kDa bands, % of the control (21-26 kDa proteins [1]; 5 mM limonene): ~ 25 % of the control
gradeable toxicity [2]: No gradeable toxicity was encountered
side-effects [3]: not without some side-effects
mM DHPAME [4]: trace
metabolism at 4 hours [4]: equal amounts of perillic and dihydroperillic acid
parent in plasma at 24 hours [4]: no limonene was detectable in the plasma
time parent found in plasma [4]: up to 4 hours
Total ([4]; 30240 min): 0.19 mM
mM DHPA ([4]; 30240 min): 0.06 ± 0.01 mM
mM DHPAME ([4]; 30240 min): 0.01 ± 0.00 mM
mM LIM/POH ([4]; 30240 min): 0 mM
mM PA ([4]; 30240 min): 0.10 ± 0.02 mM
mM PAME ([4]; 30240 min): 0.02 ± 0.01 mM
Total ([4]; 50400 min): 0.28 mM
mM DHPA ([4]; 50400 min): 0.09 ± 0.02 mM
mM DHPAME ([4]; 50400 min): 0.01 ± 0.00 mM
mM LIM/POH ([4]; 50400 min): 0 mM
mM PA ([4]; 50400 min): 0.14 ± 0.03 mM
mM PAME ([4]; 50400 min): 0.04 ± 0.01 mM
Total ([4]; 100800 min): 0.27 mM
mM DHPA ([4]; 100800 min): 0.12 ± 0.01 mM
mM LIM/POH ([4]; 100800 min): 0 mM
mM PA ([4]; 100800 min): 0.13 ± 0.01 mM
mM PAME ([4]; 100800 min): 0.02 ± 0.00 mM
concentration ([4]; po, 1000 mg/kg, 4 h): 90 ± 20 µM
time of highest metabolite concentrations ([5]; human): 4 h
identity of abundant human metabolite H2 [5]: limonene-1,2-diol
metabolite concentrations at 24 h (8 h in one subject) [5]: lower than those at the 4 h time point
time of highest concentrations of limonene-derived material [6]: 2 to 12 h
intensity of the 21-26 kDa bands (21-26 kDa proteins [7]; 5 mM limonene): marked decrease
concentration required for significant inhibition of protein isoprenylation (21-26 kDa proteins [7]; dose responsive): at least 1 mM
Primary carcinoma complete regression (tumors regressed / tumors) [8, 9]: 19/28
Primary carcinoma regression (%) [8, 9]: 68%
Secondary carcinoma regression (%) [8, 9]: 63%
Secondary carcinoma regression (tumors regressed / tumors) [8, 9]: 17/27
Secondary carcinomas/rat [8, 9]: 1.08
development of secondary carcinomas ([8]; after initial diet assignment): number of secondary carcinomas was higher in the limonene-fed mammals
Time to Regress (wks) ([8]; primary carcinoma, footnote: Kaplan-Meier estimate of time when 25% regressed): 3.25 wks
Rank order, inhibition of HT-29 tumor cell proliferation (HT29 cells): 5

SMILES: C=C(C)[C@@H]1CC=C(C(=O)O)CC1 [perillic acid]
inhibition of isoprenylation in all cases examined (21-26 kDa proteins [1]; all cell types examined): inhibition of isoprenylation
inhibition of cell growth (NIH3T3 cells): significantly inhibited cell growth in a dose-dependent manner
isoprenylation of 21-26 kDa proteins (21-26 kDa proteins [7]; 5 mM): inhibited significantly
inhibition of cell growth (M600B cells): significantly inhibited cell growth in a dose-dependent manner
Rank order, inhibition of HT-29 tumor cell proliferation (HT29 cells): 4

SMILES: C=C(C)C1CC=C(C=O)CC1 (stereo not drawn) [Perillylaldehyde, reference compound]
Rank order, inhibition of HT-29 tumor cell proliferation (HT29 cells): 3

IC50 (HT29 cells; Homo sapiens, HT-29, read-out: IC50 HT29 tumor cell proliferation): 50 µM
SMILES: C=C(C)C1CC=C(C(=O)OC)CC1 (stereo not drawn) [perillic acid methyl ester]
effectiveness of diet (rat mammary carcinoma): effective
no regression (tumors) (rat mammary carcinoma; 6 weeks, second comparison): 10 of 19
no response (rat mammary carcinoma; 6 weeks, second comparison): 1
partial regression >1/2 original diameter (%) (rat mammary carcinoma; 6 weeks, second comparison): 47%
partial regression >1/2 original diameter (tumors) (rat mammary carcinoma; 6 weeks, second comparison): 9 of 19
small regression response (rat mammary carcinoma; 6 weeks, second comparison): 4 of 19
some growth of tumor (rat mammary carcinoma; 6 weeks, second comparison): 5 of 19
no regression (tumors) (rat mammary carcinoma; [10]): 10/19
no response (rat mammary carcinoma; [10]): 1/19
partial regression >1/2 original diameter (tumors) (rat mammary carcinoma; [10]): 9/19
small regression response (rat mammary carcinoma; [10]): 4/19
some growth of tumor (rat mammary carcinoma; [10]): 5/19
time (of tumor size change) (DMBA rat mammary tumor): 6 wks and 5 wks and 4 wks and 3 wks and 2 wks
potency in cell proliferation tests versus perillyl alcohol (HT29 cells): more potent in cell proliferation, tests than perillyl alcohol
Rank order, inhibition of HT-29 tumor cell proliferation (HT29 cells): 1
